# Legend:
# [1] = test system: patients with multiple sclerosis; assay: Rivermead Mobility Index (RMI), 52 week follow up; assay type: in vivo, human; details: FIG. 6
# Excerpt: (§1) In order to reduce the potential for unmasking bias from treatment side effects, two study personnel were used at each centre. A treating physician monitored the dosage, side effects, and patient wellbeing, while an assessor (usually a physiotherapist) measured the Ashworth score, timed 10 metre walk, and Rivermead Mobility Index (RMI). […] Assessors remained blinded to any discussion of dosage or side effects, and when evaluating patients' spasticity, were instructed not to have access to their assessment scores from previous visits. […]
# (§2) Times taken to complete a 10 metre walk were analysed using the Kruskal-Wallis test, and non-parametric methods were used to produce confidence intervals for the median. The RMI, UKNDS, postal BI, and GHQ-30 were each analysed using non-parametric analysis of variance to compare the groups. EDSS scores were analysed using Fisher's exact test. Category rating scales were analysed using contingency table analysis. […]
# patients with MS = details: 4 week period, oral; cited from earlier work
# [2] = test system: patients with multiple sclerosis; assay: Timed 10 meter walk, 15 week study; assay type: in vivo, human
# Method: Secondary outcomes were also measured in the above-described study. Such secondary outcomes included the Rivermead mobility index (See e.g. Collen, F. M. et al., The Rivermead mobility index: a further development of the Rivermead motor assessment. Int. Disanil. Stud. 1991; 13:50 54) hereby incorporated by reference in its entirety, a timed 10 meter walk, four self completion questionnaires—the United Kingdom neurological disability score (See e.g. Sharrack, B., Hughes R. A., The Guy's neurological disability scale (GNDS): a new disability measure for multiple sclerosis. Mult. Sder. 1999; 5: 223-33), and a series of nine category-rating scales. For the category-rating scale assessment, patients were asked to assess how their symptoms had been over the previous week compared with how they were just before the study started. Categories included irritability, depression, tiredness, muscle stiffness, tremor, pain, sleep, muscle spasms, and amount of energy.
# With respect to secondary outcome measures, 322 patients provided at least one baseline walk time. Of these, seven (1 cannabis extract, 3 delta-9-THC, 3 placebo) dropped out of the trial. Walk times were obtained from 278 patients at visit seven. In total, 20 patients were unable to walk (8 cannabis extract, 5 delta-9-THC, 7 placebo) and very large walk times were substituted for these individuals.
# [3] = test system: patients with multiple sclerosis; assay: Ashworth score, 52 week follow up; assay type: in vivo, human
# Excerpt: In Example 4, the study described in Examples 1-3 above was continued to determine if long-term therapy with D9-TCH or cannabis plant extract would affect the progression of MS. At the end of week 15, patients were offered the opportunity to resume medication at the previously determined dose for a maximum of 52 weeks. If patients decided not to continue medication, the reasons for non-continuance were documented. Throughout the study, capsule compliance was checked at clinic visits by counting the number of capsules returned. Urine samples for cannabinoid analysis were collected at each clinic visit during the follow up phase in order to evaluate potential cannabis use in the placebo group.
# (§3) In order to reduce the potential for unmasking bias from treatment side effects, two study personnel were used at each centre. A treating physician monitored the dosage, side effects, and patient wellbeing, while an assessor (usually a physiotherapist) measured the Ashworth score, timed 10 metre walk, and Rivermead Mobility Index (RMI). […] Assessors remained blinded to any discussion of dosage or side effects, and when evaluating patients' spasticity, were instructed not to have access to their assessment scores from previous visits. Self completion booklets containing the General Health Questionnaire-30 (GHQ-30), category rating scales (asking patients to assess any change in their symptoms at that point in the study compared with how they were before they started medication, and measuring irritability, depression, tiredness, muscle stiffness, tremor, pain, sleep, muscle spasms, and energy levels), the UK Neurological Disability Scale (UKNDS), and the Barthel Index (BI) were sent to participants just prior to week 27 and week 52. The Expanded Disability Status Scale (EDSS) was used at week 52.
# As set forth in FIG. 5, 95% Confidence intervals for differences in means (active minus placebo) of changes in total Ashworth score at each visit are shown. […] For these patients, their last Ashworth score (visit 10) was carried forward as their final measured response. […]
# [4] = test system: patients with multiple sclerosis; assay: Category rating scales, 52 week follow up; assay type: in vivo, human; details: category rating scale, 52 week follow up study
# Excerpt: as §3
# Times taken to complete a 10 metre walk were analysed using the Kruskal-Wallis test, and non-parametric methods were used to produce confidence intervals for the median. The RMI, UKNDS, postal BI, and GHQ-30 were each analysed using non-parametric analysis of variance to compare the groups. EDSS scores were analysed using Fisher's exact test. Category rating scales were analysed using contingency table analysis. Comparison was made between patients choosing to continue on medication and those who chose to discontinue, by baseline Ashworth scores, RMI, EDSS, age, weight, ambulatory status, type of disease, sex, and use of urinary catheter. No adjustments were made for multiple comparisons.
# [5] = test system: patients with multiple sclerosis; assay: Timed 10 metre walk / ability to walk, 52 week follow up; assay type: in vivo, human; details: end of 52 week study
# Excerpt: as §1, §2
smiles,measurement,setting,value
"CCCCCc1cc(O)c2c(c1)OC(C)(C)[C@@H]1CCC(C)=C[C@@H]21 (relative stereo) [delta-9-THC, Delta-9-Tetrahydrocannabinol]",treatment effect on Rivermead Mobility Index,[1],Suggestion of treatment effect
same,changes in Ashworth scores,patients with MS,no significant changes
same,reduction of median time taken to walk 10 meters from baseline to follow-up,[2]; baseline to visit 7,12%
same,patients unable to walk (number),[2]; visit 7,5
same,Mean (SD) difference in Ashworth scores from baseline to end of study,[3]; 52 week follow up,1.82 (8.12)
same,improvement on the Ashworth scale from a baseline mean of around 22,[3]; 52 week follow up,approximately 2 points
same,effect on progression of MS (spasticity and disability),[3]; end of the 52 week treatment period,profound effects in slowing the progression of MS
same,"Depression: Deterioration, %",[4],17 (17) %
same,"Depression: Improvement, %",[4],26%
same,"Depression: Same, %",[4],57%
same,"Energy: Deterioration, %",[4],20%
same,"Energy: Improvement, %",[4],24%
same,"Energy: Same, %",[4],56%
same,"Irritability: Deterioration, %",[4],15 (15) %
same,"Irritability: Improvement, %",[4],30%
same,"Irritability: Same, %",[4],55%
same,"Pain: Deterioration, %",[4],16%
same,"Pain: Improvement, %",[4],28%
same,"Pain: Same, %",[4],56%
same,"Shaking: Deterioration, %",[4],19 (19) %
same,"Shaking: Improvement, %",[4],26%
same,"Shaking: Same, %",[4],55%
same,"Sleep: Deterioration, %",[4],12%
same,"Sleep: Improvement, %",[4],34%
same,"Sleep: Same, %",[4],54%
same,"Spasms: Deterioration, %",[4],25%
same,"Spasms: Improvement, %",[4],29%
same,"Spasms: Same, %",[4],46%
same,"Spasticity: Deterioration, %",[4],33%
same,"Spasticity: Improvement, %",[4],33%
same,"Spasticity: Same, %",[4],34%
same,"Tiredness: Deterioration, %",[4],21%
same,"Tiredness: Improvement, %",[4],25%
same,"Tiredness: Same, %",[4],54%
same,proportion of patients unable to walk at the end of the study who could walk at baseline,[5],6%
